In article PMC10411625, “Rationally designed stapled peptides allosterically inhibit PTBP1–RNA-binding” (Chemical Science, 2023):

Assay: Helicity by circular dichroism spectroscopy
Assay type: physicochemical
Conditions: 50 µM peptide, 20 mM sodium phosphate pH 8.0, 10 mM NaF, 20 °C, triplicates, JASCO multivariate secondary structure analysis
From the text: For the initial design we used the i, i + 4 strategy where two (S)-pentenyl alanines (S5) were introduced in positions with three other amino acids in between. We picked three different amino acid pairs to replace with the S5 amino acids based on their orientation as observed in the NMR structures (P-2, P-3 and P-4, Fig. 2B and C).[25] To prevent the staple from disturbing the interaction between the ligand and the protein we chose positions facing away from the binding site forming the pairs Ala145/Ala149, Gln148/Gln152, and Ala149/Ala153. The three peptides were synthesized on Rink amide resin and the linear peptides were treated with a Grubbs catalyst to connect the S5 residues. To avoid a mixture of E/Z-diastereomers we reduced the alkene in the linker of the staple using a solution phase hydrogenation protocol.[43] The linear equivalent P-1 was synthesized for comparison but had to be extended on the C-terminus with an arginine residue to improve its solubility. The C-terminus is away from the binding surface and this modification was therefore not expected to have an impact on the binding affinity. The peptides were tested in a competitive fluorescence polarization assay using the RRM12 construct and RNA-2 (Fig. 2C and S2 ^†). […] As the staple is expected to stabilize the α-helical conformation we used circular dichroism (CD) spectroscopy to evaluate the helicity of the peptides. […] It is possible that although P-4 was more helical than P-3, the replacement of Gln148 with the hydrophobic linker disturbed the interaction since the side chain amide potentially interacts with the RRM1 surface. […]
performed in FP bufferPTBP1. […]
serially diluted in the same buffer. […]
a final concentration of 10 nM probe. […]
the settings mentioned previously.
Fluorescence polarization assay with SRSF1
Fluorescence polarization was
Fluorescence polarization assay with hnRNPA2/B1
For the competitive assay 10 nM
Microscale thermophoresis […]
afterwards serially diluted into FP buffer.
The data was evaluated at […]
experiments were performed in duplicates.
Circular Dichroism Spectroscopy […]

For `CC(=O)N[C@@H](CC(N)=O)C(=O)N[C@@H](CCC(N)=O)C(=O)N[C@@]1(C)CCCCCCCC[C@@](C)(C(=O)N[C@@H](C)C(=O)N[C@@H](CC(C)C)C(=O)N[C@@H](CCC(N)=O)C(=O)N[C@@H](C)C(=O)N[C@H](C(=O)N[C@@H](CC(N)=O)C(N)=O)C(C)C)NC(=O)[C@H](CCC(N)=O)NC(=O)[C@H](C)NC(=O)[C@H](CCCNC(=N)N)NC1=O` [Peptide P-2], the “Helicity by CD spectroscopy” value was 92.3%.
